From patent publication US20240108607A1, “METHOD FOR MANUFACTURING NOVEL NITROGEN-CONTAINING COMPOUND OR SALT THEREOF AND MANUFACTURING INTERMEDIATE OF NOVEL NITROGEN-CONTAINING COMPOUND OR SALT THEREOF” (FUJIFILM Corporation, priority 2015, published 2024)

What was measured:
U87MG cells [1] = experiment: Radioactivity concentration of labeled compounds in tumor, U87MG subcutaneous transplantation; format: in vivo, mice (Balb/c AJcl-nu/nu); conditions: caudal vein, 111In 740 kBq, 64Cu and 90Y 500 kBq
Method: Test Example 3 Evaluation based on radioactivity concentration of ^111In-labeled compound, ^64Cu-labeled compound, and ^90Y-labeled compound in tumor
After 2 to 3 weeks, at a point in time when the tumor volume became 200 to 500 mm^3, 3 mice were sorted into one group at each point in time. The ^111In-labeled compound (740 k Bq) was administered into the caudal vein, the animals were sacrificed after a certain period of time, and the tumor was extracted. The weight of the tumor was measured, the radioactivity was measured using a gamma counter, and the radioactivity concentration in tumor (% ID/g) was calculated. For the ^64Cu-labeled compound (500 k Bq) and the ^90Y-labeled compound (500 k Bq), the radioactivity concentration in tumor (% ID/g) was calculated by the same method.

U87MG cells [2] = experiment: Imaging of integrin expression tumor by PET; format: in vivo, mice (Balb/c AJcl-nu/nu); conditions: 48 hours after administration, 4.8 MBq/mouse caudal vein
Method: Test Example 4 Imaging of Integrin Expression Tumor by Positron Emission Tomography (PET) Using [^64Cu]-(Compound A) and [^64Cu]-(Compound B)
After 2 weeks, [^64Cu]-(compound A) was administered at 4.8 MBq/mouse into the caudal vein of the mice with a tumor having a volume of […] to 650 mm^3. After 1, 4, 24, and 48 hours, the mice were imaged by microPET/CT (Inveon, Siemens Healthcare GmbH) under isoflurane anesthesia. […], whole blood was collected from the postcava under deep isoflurane anesthesia, the animals were euthanised, and then the tumor was extracted. The weight of the tumor was measured, the radioactivity was measured using a gamma counter, and the radioactivity concentration in tumor (% ID/g) was calculated. For [^64Cu]-(compound B), imaging was performed by the same method.
FIGS. 1 and 2 show PET images relating to each compound captured at each point in time. […] As a result, a hematoma matching with the image was found in the central portion. At the time of dissection (48 hours after administration), the radioactivity concentration in tumor was 5.6% ID/g.

[3] = Absorbed dose in a human being simulated with OLINDA/EXM 1.0 from monkey organ distribution
Method: Blood was collected from a crab-eating macaque over time, and by using [^111In]-(compound A), from the radioactivity concentration in the blood, kinetic parameters of the compound in blood were calculated by OLINDA/EXM 1.0. Furthermore, by using [^111In]-(compound A), from the organ distribution obtained by imaging, the absorbed dose of each organ obtained in a case where the compound is administered to a human being was calculated using OLINDA/EXM 1.0. [^111In]-(compound A) (98 MBq/9.3 μg) was administered to a crab-eating macaque (Hamri Co., Ltd., males, 3-year-old, 3.4 kg) under anesthesia. After the administration, blood was collected over time, and imaging was performed using a gamma camera. The blood was collected 10, 30, and 60 minutes after the administration and 2, 4, 5, 6, 24, 48, 72, and 144 hours after the administration. Regarding the imaging, after 1, 2, 4, 6, 24, 48, 72, and 144 hours, planar imaging was performed using a gamma camera (Symbia, Siemens Healthcare GmbH). Regarding the anesthesia, the animal was anesthetized with ketamine at 20 mg/kg before the administration of [^111In]-(compound A) and kept anesthetized until the end of imaging, which was continued for 6 hours after the administration, by inhalation anesthesia (isofluran 2 to 3%, 5 to 8 L/min). After 24 hours, ketamine (20 mg/kg) and xylazine (2 mg/kg) were administered to perform blood collection and imaging.
Furthermore, by using exposure dose analysis software OLINDA/EXM 1.0, the absorbed dose in a human being was simulated using each of the labeled compounds, and the results are shown below.

[4] = Radiochemical purity after standing at room temperature (reversed-phase TLC); format: physicochemical; conditions: 22 hours
Method: A indium [^111In] chloride solution (80 MBq, 100 μL) was added to a mixture of the compound A (8.5 μg) and a 0.2 mol/L sodium acetate buffer solution (pH 4.0) (1.5 mL). The solution was heated to 100° C. for 15 minutes and then left to stand for 5 minutes at room temperature, thereby obtaining [^111In]-(compound A). […] The radiochemical purity measured immediately after the compound was prepared and measured after 24 hours at room temperature was equal to or higher than 95%.
A yttrium [^90Y] chloride solution (700 MBq, 240 μL) was added to a mixture of the compound (79 μg), gentisic acid (1.8 mg), a 0.6 mol/L sodium acetate buffer solution (pH 4.0, 120 μL), and 0.4 mol/L aqueous sodium hydroxide solution (24 μL). The solution was heated to 100° C. for 20 minutes and then left to stand for 5 minutes at room temperature, thereby obtaining [90^Y]-(compound A). […] The radiochemical purity measured immediately after the compound was prepared and measured after 24 hours at room temperature was equal to or higher than 95%.
A copper [^64Cu] chloride solution (pH 5, 35 MBq, 55 μL) was added to a mixture of the compound A (5.8 μg) and 0.2 mol/L sodium acetate buffer solution (pH 4.0, 219 μL). The solution was heated to 100° C. for 15 minutes and left to stand for 5 minute at room temperature, thereby obtaining [^64Cu]-(compound A). […] The radiochemical purity measured immediately after the compound was prepared and measured after 22 hours at room temperature was equal to or higher than 90%.
A 0.2 mol/L sodium acetate buffer solution of Copper [^64Cu] chloride (pH 4.0) (40 MBq, 155 μL) was added to a mixture of the compound B (4.2 μg), gentisic acid (1 mg), and a 0.2 mol/L sodium acetate buffer solution (pH 4.0) (5.0 μL). The solution was heated to 100° C. for 15 minutes and left to stand for 5 minutes at room temperature, thereby obtaining [^64Cu]-(compound B). […] The radiochemical purity measured immediately after the compound was prepared and measured after 24 hours at room temperature was equal to or higher than 90%.
(§1) A gallium [^67Ga] chloride solution (200 MBq, 63 μL) was added to a mixed solution of the compound A (21 μg), gentisic acid (1.0 mg), a 0.2 mol/L sodium acetate buffer solution (pH 4.0, 730.7 μL), and 4.5 mol/L aqueous sodium hydroxide solution (6.3 μL). The solution was heated to 100° C. for 15 minutes and then left to stand for 5 minutes at room temperature, thereby obtaining [^67Ga]-(compound A).
A lutetium [^177Lu] chloride solution (666 MBq, 333 μL) dissolved in a 0.2 mol/L sodium acetate buffer solution (pH 4.0) was added to a mixed solution of the compound A (70.0 μg), gentisic acid (1.8 mg), and a 0.2 mol/L sodium acetate buffer solution (pH 4.0, 83.3 μL). The solution was heated to 100° C. for 15 minutes and then left to stand for 5 minutes at room temperature, thereby obtaining [^177Lu]-(compound A).
as §1, with “(40” for “(200”, “11.7” for “63”, “B (4.1” for “A (21”, “4.5, 147.13” for “4.0, 730.7”, “(1.17” for “(6.3”, “B).” for “A).”

integrin αvβ3 = integrin αvβ3 (Homo sapiens, UniProt P05106+P06756); experiment: Integrin αvβ3 binding affinity test (biotinylated vitronectin competition on immobilized integrin); conditions: inhibition of biotinylated vitronectin binding
Method: Test Example 1 Integrin […] Binding Affinity Test
(§2) 0.2 μg/mL of δvβ3 was immobilized in a 96-well plates (Corning Incorporated) and then blocked using a 1% Block Ace (DS Pharma Biomedical Co., Ltd.) solution, and then the plate was washed with T-PBS (PBS containing 0.05% Tween 20). A 2× concentrated evaluation compound solution (10× concentration of 3.16× dilution from 0.3 μmol/L, buffer (20 mM Tris-HCl pH 7.5, 150 mM NaCl, 1 mM CaCl2), 1 mM MgCl2, 1 mM MnCl2)) and a 4 μg/mL biotinylated vitronectin solution (labeling vitronectin (Upstate Biotechnology Inc.) by using EZ-Link Sulfo-NHS-Biotinylation Kit (Pierce Protein Biology) and then adjusting concentration) were each added to the plate in an amount of 50 μL, and the plate was shaken for 2 hours at room temperature. The plate was washed with T-PBS, a 0.2 μg/mL avidin·peroxidase (Pierce Protein Biology) was added thereto, and the plate was shaken for 1 hour at room temperature. The plate was washed with T-PBS, an o-phenylenediamine (Sigma-Aldrich Co., LLC.) solution was added thereto such that color was produced (stopped using 4 mol/L sulfuric acid), and the absorbance (490 nm, Reference: 595 nm) was measured. The IC50 value was calculated using XLfit 3.0 (ID Business Solutions Ltd.). For each plate, as a QC sample, RGDfV (Bachem AG) was measured in duplicate. […]

integrin αvβ5 = integrin αvβ5 (Homo sapiens, UniProt P06756+P18084); experiment: Integrin αvβ5 binding affinity test (biotinylated vitronectin competition on immobilized integrin); conditions: inhibition of biotinylated vitronectin binding
Method: Test Example 2 Integrin […] Binding Affinity Test
as §2, with “[…]” for “δvβ3”, “PBST (10 mM Na2HPO4 pH 7.5, 150 mM NaCl, 0.01%” for “T-PBS (PBS containing 0.05%”, “[…],” for “μmol/L,”, “PBST,” for “T-PBS,”, “[…] avidin-peroxidase” for “μg/mL avidin·peroxidase”

| SMILES | Radioactivity concentration in tumor After 4 hours (U87MG cells [1]; 4 hours) [% ID/g] | Radioactivity concentration in tumor After 24 hours (U87MG cells [1]; 24 hours) [% ID/g] | radioactivity concentration in tumor at the time of dissection (U87MG cells [2]) [% ID/g] | Absorbed dose Brain [3] [mGy/MBq] | Absorbed dose Kidney [3] [mGy/MBq] | Absorbed dose Liver [3] [mGy/MBq] | Absorbed dose Lung [3] [mGy/MBq] | Absorbed dose Red marrow [3] [mGy/MBq] | Absorbed dose Small intestine [3] [mGy/MBq] | Absorbed dose Whole body [3] [mGy/MBq] | radiochemical purity immediately after preparation and after 22 hours at room temperature [4] [%] | IC50 (integrin αvβ3) [nM] | IC50 (integrin αvβ5) [nM] |
| --- | --- | --- | --- | --- | --- | --- | --- | --- | --- | --- | --- | --- | --- |
| Cc1cc(OCCCC(=O)NCCNC(=O)C(CS(=O)(=O)O)NC(=O)CN2CCN(CC(=O)[O-])CCN(CC(=O)O)CCN(CC(=O)[O-])CC2)cc(C)c1S(=O)(=O)NC(CNC(=O)CCCCc1ccc2c(n1)NCCC2)C(=O)O.[64Cu+2] (stereo not drawn) [[^64Cu]-(compound A)] | 9.25 | 8.48 | 5.6 | 0.11 | 0.69 | 0.09 | 0.08 | 0.01 | 0.06 | 0.02 | ≥ 90 | – | – |
| Cc1cc(OCCCC(=O)NCCNC(=O)[C@H](CS(=O)(=O)O)NC(=O)CC[C@H](C(=O)O)N2CCN(CC(=O)O)CCN(CC(=O)O)CC2)cc(C)c1S(=O)(=O)N[C@@H](CNC(=O)CCCCc1ccc2c(n1)NCCC2)C(=O)O [Compound B, 2,2′-(7-((R)-1-carboxy-4-(((R)-1-((2-(4-(4-(N—((S)-1-carboxy-2-(5-(5,6,7,8-tetrahydro-1,8-naphthyridin-2-yl)pentanamide)ethyl)sulfamoyl)-3,5-dimethylphenoxy)butanamide)ethyl)amino)-1-oxo-3-sulfopropan-2-yl)amino)-4-oxobutyl)-1,4,7-triazonane-1,4-diyl)diacetic acid] | – | – | – | – | – | – | – | – | – | – | – | < 1 | < 1 |
| Cc1cc(OCCCC(=O)NCCNC(=O)[C@H](CS(=O)(=O)O)NC(=O)CN2CCN(CC(=O)O)CCN(CC(=O)O)CCN(CC(=O)O)CC2)cc(C)c1S(=O)(=O)N[C@@H](CNC(=O)CCCCc1ccc2c(n1)NCCC2)C(=O)O [Compound A, 2,2′,2″-(10-(2-(((R)-1-((2-(4-(4-(N—((S)-1-carboxy-2-(5-(5,6,7,8-tetrahydro-1,8-naphthyridin-2-yl)pentanamide)ethyl)sulfamoyl)-3,5-dimethylphenoxy)butanamide)ethyl)amino)-1-oxo-3-sulfopropan-2-yl)amino)-2-oxoethyl)-1,4,7,10-tetraazacyclododecane-1,4,7-triyl)triacetic acid] | – | – | – | – | – | – | – | – | – | – | – | < 1 | < 1 |
